Reference: US20120316245A1, “CO-CRYSTALS OF AGOMELATINE, A PROCESS FOR THERE PREPARATION AND PHARMACEUTICAL COMPOSITIONS CONTAINING THEM” (LES LABORATOIRES SERVIER, priority 2011, published 2012)

Experiment: Measurement of the dissolution rate of the co-crystals (tDISS apparatus, pION)
Assay type: physicochemical
Settings: 37° C., stirring speed 700 rpm
From the text: The results obtained are collated in the following tables and are expressed as percentage increases in the dissolution rate of the co-crystal compared to the dissolution rate obtained for agomelatine of form II contained in the marketed Valdoxan® form: [formula]

| SMILES | percentage increase in the dissolution rate of the co-crystal compared to agomelatine of form II (Valdoxan) (0.01 N HCl) | percentage increase in the dissolution rate of the co-crystal compared to agomelatine of form II (Valdoxan) (pH 6.8 buffer) |
| --- | --- | --- |
| COc1ccc2cccc(CCNC(C)=O)c2c1.O=C(O)CC(O)(CC(=O)O)C(=O)O [Compound of Example 1, Co-Crystal of Agomelatine/Citric Acid (1/1)] | +25% | +70% |
| COc1ccc2cccc(CCNC(C)=O)c2c1.O=C(O)CCC(=O)C(=O)O [Compound of Example 9, Co-Crystal of Agomelatine/Ketoglutaric Acid (1/1)] | −47% | −32% |
| COc1ccc2cccc(CCNC(C)=O)c2c1.O=C(O)CO [Compound of Example 10, Co-Crystal of Agomelatine/Glycolic Acid (1/1)] | −30% | −30% |
| COc1ccc2cccc(CCNC(C)=O)c2c1.O=C(O)CCCC(=O)O [Compound of Example 8, Co-Crystal of Agomelatine/Glutaric Acid (1/1)] | −42% | −29% |
| COc1ccc2cccc(CCNC(C)=O)c2c1.COc1ccc2cccc(CCNC(C)=O)c2c1.O=C(O)c1ccc(O)cc1 [Compound of Example 5, Co-Crystal of Agomelatine/Para-Hydroxybenzoic Acid (2/1)] | +97% | +89% |
| COc1ccc2cccc(CCNC(C)=O)c2c1.O=C(O)c1ccc(O)cc1.O=C(O)c1ccc(O)cc1 [Compound of Example 6, Co-Crystal of Agomelatine/Para-Hydroxybenzoic Acid (1/2)] | +19% | +46% |
| COc1ccc2cccc(CCNC(C)=O)c2c1.COc1ccc2cccc(CCNC(C)=O)c2c1.O=C(O)C(=O)O [Compound of Example 7, Co-Crystal of Agomelatine/Oxalic Acid (2/1)] | +1.5% | +33% |
| COc1ccc2cccc(CCNC(C)=O)c2c1.COc1ccc2cccc(CCNC(C)=O)c2c1.O=C(O)c1cc(O)c(O)c(O)c1 [Compound of Example 2, Co-Crystal of Agomelatine/Gallic Acid (2/1)] | +37% | +29% |
| COc1ccc2cccc(CCNC(C)=O)c2c1.O=C(O)C=CC(=O)O [Compound of Example 3, Co-Crystal of Agomelatine/Maleic Acid (1/1)] | −26% | −4% |
| COc1ccc2cccc(CCNC(C)=O)c2c1.O=C(O)CC(=O)O [Compound of Example 4, Co-Crystal of Agomelatine/Malonic Acid (1/1)] | −55% | −21% |
